The record followed here is patent publication US20230279018A1, “AP[…] INHIBITION” (priority 2020, published 2023).

What is called IC50 is the concentration that gives 50% inhibition. The Ki is the equilibrium dissociation constant of an inhibitor or competing ligand from its target.

Like-named read-outs stand apart in the source and are kept apart here.

One experiment concerns the target T1, PfcFRS (Plasmodium falciparum, UniProt Q8I246).
T1 sequence (Q8I246 1-575): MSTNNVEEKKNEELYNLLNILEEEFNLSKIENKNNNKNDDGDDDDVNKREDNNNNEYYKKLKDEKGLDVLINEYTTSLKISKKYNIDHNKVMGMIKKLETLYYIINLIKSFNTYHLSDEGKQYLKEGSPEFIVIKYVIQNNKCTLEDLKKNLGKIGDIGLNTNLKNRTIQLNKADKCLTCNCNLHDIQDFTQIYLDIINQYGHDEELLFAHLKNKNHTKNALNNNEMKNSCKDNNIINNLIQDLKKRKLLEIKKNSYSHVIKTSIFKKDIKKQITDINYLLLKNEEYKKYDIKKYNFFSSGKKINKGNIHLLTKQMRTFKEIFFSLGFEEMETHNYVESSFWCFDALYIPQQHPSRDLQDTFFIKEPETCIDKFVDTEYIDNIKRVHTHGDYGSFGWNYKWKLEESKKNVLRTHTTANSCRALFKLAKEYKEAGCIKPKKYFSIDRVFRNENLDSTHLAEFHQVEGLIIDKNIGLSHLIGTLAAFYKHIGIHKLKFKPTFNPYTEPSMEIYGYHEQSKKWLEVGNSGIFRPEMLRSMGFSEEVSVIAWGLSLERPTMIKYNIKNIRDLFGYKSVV
T1 sequence (Q8IIW2 1-623 partner): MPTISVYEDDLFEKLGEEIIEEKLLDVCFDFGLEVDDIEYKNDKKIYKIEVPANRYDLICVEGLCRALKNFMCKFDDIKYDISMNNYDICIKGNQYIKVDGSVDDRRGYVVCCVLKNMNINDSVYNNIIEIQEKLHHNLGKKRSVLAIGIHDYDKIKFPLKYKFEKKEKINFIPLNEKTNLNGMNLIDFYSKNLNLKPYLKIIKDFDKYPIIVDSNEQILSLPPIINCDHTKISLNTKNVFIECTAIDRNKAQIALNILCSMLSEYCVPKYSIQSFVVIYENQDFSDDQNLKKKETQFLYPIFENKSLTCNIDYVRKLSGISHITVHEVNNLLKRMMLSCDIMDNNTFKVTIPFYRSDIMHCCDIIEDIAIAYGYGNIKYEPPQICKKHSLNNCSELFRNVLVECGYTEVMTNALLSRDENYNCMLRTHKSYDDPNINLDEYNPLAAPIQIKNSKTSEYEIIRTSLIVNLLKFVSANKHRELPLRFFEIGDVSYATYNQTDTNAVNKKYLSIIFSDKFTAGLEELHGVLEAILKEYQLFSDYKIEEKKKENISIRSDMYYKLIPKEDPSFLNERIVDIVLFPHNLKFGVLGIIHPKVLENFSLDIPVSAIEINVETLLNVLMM
Put plainly: malachite green-based aminoacylation assay, PfcFRS. The format is biochemical. The source says:
(§1) EC50 assays were run as described in Int'l Pub Nos. WO 2015070204, WO 2018175385, and Kato, N, et al. Nature 538 (2016): 344-349, which are hereby incorporated by reference in its entirety. The inhibition of the aminoacylation activity of Pf (Plasmodium falciparum), Pv (Plasmodium vivax), Hs (Human) and Pf-Mut (L550V) cFRS enzymes by Compound 1 are illustrated in FIG. 1.
(§2) The enzymatic activity of purified heterodimeric PfcFRS using malachite green-based aminoacylation assays with substrates L-Phe and ATP was also measured as described in Cestari, I. et al., J Biomol. Screen. 18 (2013): 490-497 and Kato, N, et al. Nature 538 (2016): 344-349, which are hereby incorporated by reference in its entirety. […] Enzymatic reactions (50 μl total volume) were performed in clear, flat-bottomed, 96-well plates (Costar 96-well standard microplates). The reaction mixture was incubated for 2 h at 37° C. The reaction was stopped by adding 12.5 μl of malachite green solution to the reaction mixture and levels of inorganic phosphate (Pi) were detected after incubation of 5 min at room temperature. Absorbance was the measured at 620 nm using a Spectramax M2 (Molecular Devices). Reactions without FRS enzyme were performed as background controls, values of which were subtracted from the reactions with enzyme. Compound 1 was added to the aminoacylation assay reaction buffer in varying concentrations ranging from 0.1 nM to 10,000 nM.
Data sets were then globally fitted to the appropriate model (with equations (1) and (2) used for competitive and mixed inhibition respectively).
where v is the reaction rate, Km is the Michaelis-Menten constant, Vmax is the maximum reaction velocity, Ki is the inhibitor constant, [I] is the concentration of inhibitor (Compound 1) and [S] is the concentration of substrate.
The data is shown for three replicates as the mean±SD in FIGS. 2A and 2B. […] Specifically, enzyme activity was evaluated at a fixed saturating concentration of one substrate (L-Phe or ATP) and varying concentrations the other at different inhibitor concentrations. The experimental data were fit to the Michaelis-Menten equation that produced Lineweaver-Burk plots as described above. […] The mode of inhibition was then analyzed using ATP as the variable-concentration substrate (FIG. 2B). The data were then fit to the modified high-substrate inhibition Michaelis-Menten equation that led to the corresponding double-reciprocal plot and its inhibition profile.

Experiment [1] addresses T2, Pv (Plasmodium vivax) cFRS (Plasmodium vivax, UniProt A5K9S0).
T2 construct: Full-length PvcFRS was also purified according to the same protocol; His6 (encoded by vector pETM11); made in house; host or cells: E. coli strain B834
Put plainly: malachite green-based aminoacylation assay, PvcFRS. The format is biochemical. Conditions: aminoacylation activity.
Description: as §1
as §2, with “Compound 1 was added to the aminoacylation assay reaction buffer in varying concentrations ranging from 0.1 nM to 10,000 nM.” left out

T2 sequence (A5K9S0 whole entry): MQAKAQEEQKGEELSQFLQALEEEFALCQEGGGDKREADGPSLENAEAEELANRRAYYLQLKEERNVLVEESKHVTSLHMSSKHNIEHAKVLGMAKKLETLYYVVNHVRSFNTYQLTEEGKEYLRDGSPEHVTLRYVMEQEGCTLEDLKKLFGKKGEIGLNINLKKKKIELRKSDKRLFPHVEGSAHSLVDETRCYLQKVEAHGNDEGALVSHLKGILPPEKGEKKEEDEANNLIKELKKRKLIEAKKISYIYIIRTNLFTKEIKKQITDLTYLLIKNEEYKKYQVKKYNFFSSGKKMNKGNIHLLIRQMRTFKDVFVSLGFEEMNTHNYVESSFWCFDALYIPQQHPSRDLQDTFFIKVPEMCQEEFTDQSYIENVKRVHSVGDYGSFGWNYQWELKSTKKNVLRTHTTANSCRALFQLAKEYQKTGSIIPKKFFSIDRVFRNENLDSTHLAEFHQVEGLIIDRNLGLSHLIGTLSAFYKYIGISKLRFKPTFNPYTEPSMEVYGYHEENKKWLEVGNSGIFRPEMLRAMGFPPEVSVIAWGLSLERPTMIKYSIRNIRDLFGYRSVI
T2 sequence (A5K464 whole entry, further chain): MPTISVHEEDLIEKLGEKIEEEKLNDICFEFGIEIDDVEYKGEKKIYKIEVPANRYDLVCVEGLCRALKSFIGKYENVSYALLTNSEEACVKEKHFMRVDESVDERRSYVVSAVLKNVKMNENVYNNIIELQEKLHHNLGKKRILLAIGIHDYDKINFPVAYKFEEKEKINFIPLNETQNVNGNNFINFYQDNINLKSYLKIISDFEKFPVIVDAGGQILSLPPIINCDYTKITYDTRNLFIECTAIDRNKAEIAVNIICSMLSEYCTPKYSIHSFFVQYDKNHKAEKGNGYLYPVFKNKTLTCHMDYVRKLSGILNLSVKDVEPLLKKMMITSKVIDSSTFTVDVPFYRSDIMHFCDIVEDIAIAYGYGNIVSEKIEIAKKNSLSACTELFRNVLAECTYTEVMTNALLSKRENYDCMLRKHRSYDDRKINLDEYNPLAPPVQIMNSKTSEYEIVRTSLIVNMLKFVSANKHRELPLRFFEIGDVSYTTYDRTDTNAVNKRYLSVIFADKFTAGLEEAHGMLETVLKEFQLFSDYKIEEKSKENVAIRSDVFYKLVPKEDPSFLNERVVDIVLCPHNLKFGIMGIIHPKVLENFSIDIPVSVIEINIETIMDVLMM

On to `COC[C@@H]1[C@H](c2ccc(C#Cc3ccccc3)cc2)[C@@H]2CN(C(=O)Nc3ccc(OC4CC4)cc3)C[C@@H](O)[C@@H](O)CN12` [Compound 1, (3S,4R,8R,9R,10S)—N-(4-cyclopropoxyphenyl)-3,4-dihydroxy-10-(methoxymethyl)-9-(4-(phenylethynyl)phenyl)-1,6-diazabicyclo[6.2.0]decane-6-carboxamide], for which the “mode of inhibition with respect to ATP” value on PfcFRS (Lineweaver-Burk analysis) is on record as “non-competitive inhibitor”. In addition, the “mode of inhibition with respect to L-Phe” value at PfcFRS (Lineweaver-Burk analysis) was “competitive inhibitor”. For the same molecule, the IC50 came to 12 nM on PfcFRS (aminoacylation activity, read-out: cFRS IC50, Pf) and 25 nM in experiment [1]. The Ki was found to be 6 ± 2 nM at PfcFRS (global competitive inhibition model, saturating ATP, varying L-Phe, read-out: Ki with respect to L-Phe) and 10 ± 5 nM on PfcFRS (non-competitive inhibition model, saturating L-Phe, varying ATP, read-out: Ki with respect to ATP).
